The source of these data is PubChem BioAssay AID1996.

Structures are written as SMILES. In brackets after ≈: the same amount, converted by molar mass. A value given as a limit tells only on which side of the number the result lay.

The term kinetic solubility denotes the concentration staying in solution when a stock, usually in DMSO, is diluted into the medium.

The conditions of this data set: buffer; pH 7.4; 200.0 µM.
For `Cc1ccc2oc(=O)c3cc(C(=O)N4CCN(C)CC4)sc3c2c1`, the solubility (kinetic) was found to be 11.8 µg/mL (≈ 34.5 µM).
Next, `CS(=O)(=O)c1ccc(-c2csc(-c3cccnc3)n2)cc1`: 5.6 µg/mL (≈ 17.7 µM).
Then `O=C(COc1ccc(S(=O)(=O)N2CCCCC2)cc1)N1CCCC1`, with greater than 52.9 µg/mL; and `CCc1ccc(S(=O)(=O)Nc2nccs2)cc1`, with 27.5 µg/mL (≈ 102 µM).
Then `Cc1cccc(C(=O)OCC(=O)NCCN2C(=O)CSC2=O)c1[N+](=O)[O-]`, with greater than 57.2 µg/mL; and `O=C(OCC(=O)c1ccc[nH]1)c1ccc(Br)cc1`, with 7.2 µg/mL (≈ 23.4 µM).
`Cn1c(N)c(C(=O)COC(=O)Cc2ccccc2)c(=O)n(C)c1=O` displayed a kinetic solubility greater than 49.7 µg/mL.
Then `Nc1ccc2nc(-c3ccccc3)cnc2c1`, with 26.6 µg/mL (≈ 120 µM); and `Cc1occc1C(=O)N1CCCC(Nc2ccc(F)cc2)C1` (stereo unspecified), with greater than 45.4 µg/mL.
Regarding `COc1ccc(NC(=O)CSc2nncn2C)cc1`, the kinetic solubility is greater than 41.7 µg/mL.
Next, `O=c1oc2ccccc2nc1/C=C(\O)c1ccccc1`: 21.4 µg/mL (≈ 80.7 µM); `CCn1c(=N)n(CC(O)COc2ccc(C)cc2)c2ccccc21.Cl` (stereo unspecified): greater than 54.3 µg/mL.
Next, `N#Cc1ccc(NC(=O)COC(=O)c2cccnc2Cl)cc1`: greater than 47.4 µg/mL.
Then `Cc1ccc(-c2csc3nc(C(C)C)oc(=O)c23)c(C)c1`, with 3.9 µg/mL (≈ 13 µM); and `CN(CC(=O)OCC(=O)NC1CCCC1)S(=O)(=O)c1ccc(Cl)cc1`, with greater than 58.3 µg/mL; and `CN(C)CCSC1c2ccccc2CSc2ccccc21.Cl` (stereo unspecified), with 51.6 µg/mL.
`O=C([O-])c1cc(-c2cccnc2)nc2ccccc12.[K+]` yielded a kinetic solubility of 8.7 µg/mL.
Next, `CN(Cc1cccc(F)c1)CC(O)COCc1ccccc1Cl` (stereo unspecified): 44.9 µg/mL (≈ 133 µM); `CCOc1ccc(N2CC(C(=O)NC3CCSC3=O)CC2=O)cc1` (stereo unspecified): 42.6 µg/mL (≈ 122 µM); `CN(C)CCCNC1=CC(=O)CC(c2ccccc2)C1` (stereo unspecified): 34.8 µg/mL (≈ 128 µM).
Then `COc1cc(C2NC(=O)NC(C)=C2[N+](=O)[O-])cc(OC)c1OC` (stereo unspecified), with 47.3 µg/mL (≈ 146 µM); and `COc1ccc(CCNC(=O)c2cc(C)oc2C)cc1OC`, with 42 µg/mL (≈ 138 µM); and `Cc1cc(C)nc(NC(=O)/C=C/c2ccc(Cl)cc2)n1`, with 42.1 µg/mL (≈ 146 µM).
Next, `CSc1cccc(NS(=O)(=O)c2ccc(C(C)=O)cc2)c1`: 41.1 µg/mL (≈ 128 µM); `O=C(COC(=O)c1cc(=O)[nH]c2ccccc12)NC1CCCCC1`: 4.7 µg/mL (≈ 14.3 µM); `C[n+]1ccn(CC(=O)c2cccs2)c1.[Br-]`: 39 µg/mL.
`CCC1C(C#N)=C(N)Oc2c1c(=O)oc1ccccc21` (stereo unspecified): the kinetic solubility was 8.6 µg/mL (≈ 32.1 µM). This solubility kinetic lies about 4.5-fold lower than the previous one.
Then `Cc1ccc2nc(Cl)c(C#N)cc2c1`, with 2.2 µg/mL (≈ 10.9 µM); and `O=C(O)CSc1ncnc2scc(-c3ccccc3)c12`, with greater than 45.4 µg/mL; and `CCOc1ccc(S(=O)(=O)NCc2ccccn2)c(C)c1C`, with greater than 48.1 µg/mL.
Next, `O=C(Cn1cc(C(F)(F)F)ccc1=O)OCC(=O)c1ccc[nH]1`: greater than 49.2 µg/mL.
Next, `Cc1nc2oc3ccc(Cl)cc3c(=O)c2cc1C(=O)O`: greater than 43.5 µg/mL; `Cc1c(C=O)c2ccccn2c1C(=O)c1ccccc1Cl`: less than 0.6 µg/mL.
For the molecule `Cc1sc2nc(CSC(C)C(=O)N3CCOCC3)[nH]c(=O)c2c1C` (stereo unspecified), the solubility (kinetic) is greater than 55.1 µg/mL.
Then `Cc1cccc(NC(=S)N2CCN(c3ccccn3)CC2)c1`, with 6.7 µg/mL (≈ 21.4 µM); and `COc1ccc(CNC(=O)COC(=O)c2ccc(S(=O)(=O)N3CCOCC3)cc2)cc1`, with 9.2 µg/mL (≈ 20.5 µM).
Then `O=C(Nc1ccccc1)Nc1ccc2ccccc2n1`, with less than 0.2 µg/mL; and `COCCN1CCn2c(nc3cc([N+](=O)[O-])ccc32)C1`, with greater than 41.4 µg/mL; and `O=C(NC1=NCCS1)c1ccc(Cl)cc1`, with 11.5 µg/mL (≈ 47.8 µM).
`Cc1ccc(C(=O)NC(=S)Nc2ccccc2C)cc1`: the solubility (kinetic) turned out to be 1.4 µg/mL (≈ 4.92 µM).
Next, `COc1ccc(-c2onc3ccc(C(=O)/C=C/N(C)C)cc23)cc1`: 9.3 µg/mL (≈ 28.8 µM).
